From patent publication US20100215653A1, “METHODS OF TREATING NEOPLASTIC, AUTOIMMUNE AND INFLAMMATORY DISEASES” (Seattle Genetics, Inc., priority 2006, published 2010)
Each block holds one compound with its values, some of them ahead of it.

What was measured:
HEL 92.1.7 cells = assay: Complement-dependent cytotoxicity (CDC) activity; type: cell-based, human; conditions: HEL 92.1.7 cells preincubated 2 hours with drug before HuM195
Procedure: The purpose of this study was to determine whether the cytotoxic effects of an anti-CD33 antibody (HuM195) on AML cells could be enhanced by combination treatment with chemotherapeutic drugs. An MDR^+, CD33-positive AML cell line (HEL 92.1.7) was either untreated or preincubated with the indicated concentrations of thalidomide or 5-azacytidine for two hours prior to exposure to the anti-CD33 Ab. Cytotoxic activity was measured using a complement-dependent cytotoxicity (CDC) activity.

HL-60 cells = assay: HL-60 disseminated AML model in mice; type: in vivo; conditions: low doses of cytarabine alone (FIG. 22)
Procedure: Mice were implanted with an AML cell line, HL-60, as follows: 5 million HL-60 cells were injected intravenously. The mice were treated with lintuzumab (10 mg/kg, q4dx4, ip), cytarabine (1 mg/kg, 5 mg/kg or 25 mg/kg, q1dx10, ip; or 50 mg/kg or 100 mg/kg, q2dx5, ip) or lintuzumab with cytarabine (dosed as described previously). Treatment began on day one. Referring to FIG. 22, the control mice or mice treated with placebo (0.9% saline) were removed from the study by day 80, due to tumor progression.
To confirm the data of the in vitro study, mice were implanted with an AML cell line, HL-60, as follows: 5 million HL-60 cells were injected intravenously. […] Treatment began on day one. Referring to FIG. 24, the control mice were removed from the study by about day 60 due to tumor progression. Mice treated with lenalidomide were removed from study by about day 90 for similar reasons.
The MDR-negative HL60 cell line and the MDR-positive HEL9217 and TF1-α cell lines were used. […] Disease symptoms typically developed between about 35 and about 80 days, and included hind limb paralysis, scruffy coat, weight loss, palpable tumors, and/or tumor masses in bone, peritoneal cavity, or soft tissues. Human CD33+ tumor cells were detected in the blood, bone marrow, and lymph nodes of the majority of the mice by flow cytometry (FIG. 25). Solid tumors associated with bone or soft tissues were found in 20 to 60% of the mice.

[1] = system: AML tumor cells (KG-1 HEL9217, and TF1α); assay: ADCC, 51Cr release assay with NK effector cells; type: cell-based, human; conditions: NK cells pre-treated 2 to 3 h with drug before addition to target cells (FIG. 23)
Procedure: Target AML tumor cells (KG-1 HEL9217, and TF1α) were labeled with Na^51CrO4 and mixed with enriched CD16^+ effector (NK) cells, prepared using PBMCs from normal donors. The effector to target cell ratio was 10:1. […] Macrophages were labeled with CD11b−FITC or CD14-FITC antibody. Flow cytometric analyses of dual labeled (PKH67+CD11b+ or PKH67+CD14+) cells was used to determine specific uptake (phagocytosis). […] Media were collected 18 h later and analyzed by ELISA for IL-8 or MCP-1.
Viable NK cells were pre-treated for 2 to 3 h with lenalidomide or thalidomide (as described in FIG. 23) prior to addition to target cells.

[2] = target: CD33 on human cells (AML cell lines HL60, KG-1, HEL9217, TF1-alpha, U937; primary human monocytes and macrophages) (human) (UniProt P20138); assay: apparent Kd, saturation binding by flow cytometry on HL60 cells
Chain of CD33 on human cells (AML cell lines HL60, KG-1, HEL9217, TF1-alpha, U937; primary human monocytes and macrophages) (human) (P20138 18-364): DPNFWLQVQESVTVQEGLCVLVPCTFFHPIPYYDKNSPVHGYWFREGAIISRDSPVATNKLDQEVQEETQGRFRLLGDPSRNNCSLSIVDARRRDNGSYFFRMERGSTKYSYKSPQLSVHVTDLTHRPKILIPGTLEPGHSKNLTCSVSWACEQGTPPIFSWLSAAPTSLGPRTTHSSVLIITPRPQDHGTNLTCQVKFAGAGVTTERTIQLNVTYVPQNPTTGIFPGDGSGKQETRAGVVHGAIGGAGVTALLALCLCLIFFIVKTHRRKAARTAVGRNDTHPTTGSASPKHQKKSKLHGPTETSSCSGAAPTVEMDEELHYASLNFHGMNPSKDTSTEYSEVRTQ

[3] = target: CD33 on human cells (AML cell lines HL60, KG-1, HEL9217, TF1-alpha, U937; primary human monocytes and macrophages) (human) (UniProt P20138); assay: apparent Kd, saturation binding by flow cytometry on TF1-alpha cells
[4] = target: CD33 on human cells (AML cell lines HL60, KG-1, HEL9217, TF1-alpha, U937; primary human monocytes and macrophages) (human) (UniProt P20138); assay: apparent Kd, saturation binding by flow cytometry on HEL9217 cells
[5] = target: CD33 on human cells (AML cell lines HL60, KG-1, HEL9217, TF1-alpha, U937; primary human monocytes and macrophages) (human) (UniProt P20138); assay: apparent Kd, saturation binding by flow cytometry on KG-1 cells
CD33 [6] = target: T1, CD33 (Homo sapiens, UniProt P20138); assay: CD33 tyrosine phosphorylation (CD33 immunoprecipitation, anti-phosphotyrosine Western blot); type: cell-based; design: endogenous in cells; host or cells: HL-60, U937; primary human CD14+ monocytes and PBMC-derived macrophages; conditions: HL-60 AML cells (FIG. 16)
T1 sequence (P20138 18-364): as above
Procedure: CD33-positive cell lines were treated with anti-CD33 antibodies (lintuzumab and certain commercially available antibodies). Cell extracts were prepared and CD33 was immunoprecipitated using an anti-CD33 antibody (MY9 clone; Beckman Coulter, Calif.). Western blotting was performed with an anti-phosphotyrosine antibody (4G10; Upstate Biotechnologies, Inc., Lake Placid, N.Y.).
(§1) Deglycosylation was confirmed by CE-SDS. […] Cell lysates were prepared and CD33 immunoprecipitated using an anti-CD33 rabbit polyclonal antibody (Santa Cruz Biotechnology, Santa Cruz, Calif.) prior to SDS PAGE gel electrophoresis. Western blot analyses of these samples were performed using the 4G10 phosphotyrosine antibody (Upstate Biotechnology, Temucula, Calif.), anti-CD33 antibody (NovoCastra, Norwell, Mass.), and anti-SHP-1 antibody (Calbiochem, San Diego, Calif.). Control lysate for SHP-1 was prepared from a B cell lymphoma cell line.

CD33 [7] = target: T1, CD33; assay: Recruitment of SHP-1 / SHP-2 / Syk to CD33 (CD33 immunoprecipitation, Western blot); type: cell-based; design: endogenous in cells; host or cells: HL-60, U937; primary human CD14+ monocytes and PBMC-derived macrophages; conditions: HL-60 and monocytes; 30 minutes (FIG. 16)
Procedure: To determine whether the humanized M195 antibody also recruits SHP phosphatases, HL-60 cells were treated with soluble or cross-linked anti-CD33 antibodies. Cell extracts were prepared and CD33 was immunoprecipitated with an anti-CD33 antibody (MY9 clone). Western blotting was performed with an anti-SHP-1 antibody (sc-287; Santa Cruz Biotechnology, Inc., Santa Cruz, Calif.).
as §1, with “To prepare deglycosylated SGN-33, the antibody was treated with PN-glycosidase F (New England BioLabs, Ipswich, Mass.). Deglycosylation” for “Deglycosylation”

[8] = system: primary human macrophages; assay: Macrophage migration in response to chemoattractants (CytoSelect Cell Migration Assay); type: cell-based; conditions: 10% human serum or 20% conditioned media from RPMI 8226 cells; p<0.05 (FIG. 21)
Procedure: (§2) The migration of macrophages in response to challenge with plating media containing 10% human serum, 20% conditioned tumor cell media, or 50 ng/ml TGF-β, VEGF, TNF-α, or IFN-γ was evaluated using the CytoSelect Cell Migration Assay (Cell Biolabs, San Diego, Calif.). […] The study was stopped 18 hours later and migration was evaluated after dissociation of the cells from the membrane followed by detection with Cyquant GR dye.
as §2, with “serum or” for “serum,”, “media” for “media, or 50 ng/ml TGF-β, VEGF, TNF-α, or IFN-γ”, “studies were” for “study was”, “h” for “hours”

[9] = Effector function (ADCC or CDC activity), data not shown; type: cell-based

Compound: Nc1ncn([C@@H]2O[C@H](CO)[C@@H](O)[C@H]2O)c(=O)n1 [5-azacytidine]
sensitivity to HuM195-mediated CDC activity after preincubation with drug (HEL 92.1.7 cells): enhanced the sensitivity

Compound: Nc1ccn([C@@H]2O[C@H](CO)[C@@H](O)[C@@H]2O)c(=O)n1 [cytarabine, reference compound]
percent survival rates compared to untreated controls (HL-60 cells): increasing percent survival rates

Compound: Nc1cccc2c1CN(C1CCC(=O)NC1=O)C2=O (stereo not shown) [lenalidomide, reference compound]
effect on SGN-33 mediated ADCC [1]: enhanced SGN-33 mediated ADCC

Compound: O=C1CCC(N2C(=O)c3ccccc3C2=O)C(=O)N1 (stereo not shown) [thalidomide, reference compound]
effect on SGN-33 mediated ADCC [1]: enhanced SGN-33 mediated ADCC
sensitivity to HuM195-mediated CDC activity after preincubation with drug (HEL 92.1.7 cells): enhanced the sensitivity

Kd [2]: 123 pM
Kd [3]: 99 pM
Kd [4]: 144 pM
Kd [5]: 70 pM
Compound: SGN-33, humanized M195 anti-CD33 antibody

phosphorylation of CD33 (CD33 [6]): induced phosphorylation of CD33
Compound: deglycosylated SGN-33: SGN-33 treated with PN-glycosidase F; does not interact with Fc receptors
recruitment of SHP-1 to the CD33 complex (CD33 [7]): resulted in recruitment of SHP-1 to the CD33 complex
macrophage migration [8]: significantly reduced the migration
effector function, including ADCC or CDC activity [9]: did not mediate effector function
